The results in this text go back to patent US20070270392A1, “Use of a Cyclopentenone Prostaglandin for Delaying the Onset and/or Preventing the Continuation of Labour” (Imperial College Innovations Limited, priority 2003, published 2007).

The test system of test [1] is COX-2. Briefly: Western immunoblot of IL-1β-induced COX-2 protein expression in myometrial cells. To be noted: treated 2 h, IL-1β 6 h. It is filed as cell-based, human. As for the experimental part:
Myometrial tissue was collected at term from the upper margin of uterine incision at the time of lower segment caesarean section either prior to the onset of labour (L−) or […] (L+). L+ samples were collected by Dr Mark Johnson and Dr S Soorrana at Chelsea & Westminster Hospital. Myometrial tissue was dissected, rinsed in PBS, and digested in serum-free DMEM containing 15 mg/ml collagenase 1A (Sigma), 15 mg/ml collagenase X, and 50 mg/ml bovine serum albumin for 45 min at 37° C. The cell suspension was filtered through a cell strainer, centrifuged at 400 g for 5 min, and the pellet re-suspended and plated out in DMEM, 10% FCS (Helena BioScience), 1% L-glutamine, 1% penicillin-streptomycin. Cells were used between passage numbers 1-4.
(§1) Protein samples (20-70 μg) were mixed with Laemmli sample buffer (1:1) containing β-mercaptoethanol (5%), and boiled for 5 min. Proteins were then separated by SDS-PAGE (12-14% gels) and transferred onto PVDF membrane (Amersham Pharmacia Biotech). […] The blots were then incubated with HRP-conjugated secondary antibody (diluted 1:2000 in 1% non-fat milk in PBS-T buffer) for 1 h and washed three times (10 min each) in PBS-T. Signal detection was achieved using enhanced chemi-luminescence (ECL plus system, Amersham Pharmacia Biotech) according to manufacturer's instructions. […]
A general note: Immunoblotting shows a protein as a band on a membrane.

Test [2] relates to COX-2. Put plainly: IL-1β-induced COX-2 expression in L− and L+ amnion cells. It is filed as cell-based, human. How it is done:
Placentae were obtained from patients at term either at elective Caesarean section prior to labour (L−) or following spontaneous labour onset and vaginal delivery (L+). Amnion cells were prepared as described in Bennett et al., (1989). Briefly, the amnion was separated from the placenta, washed 3× in PBS, cut into strips, and incubated in 0.51 mM EDTA in PBS for 15 min. The strips were washed in PBS 2× and digested with 2.5 mg/ml dispase in serum-free DMEM for 35 min at 37° C. The amnion was then shaken vigorously in DMEM, 10% FCS to dissociate the cells, the remaining strips discarded, and the cell suspension pelleted at 175 g for 10 min and cultured in DMEM, 10% FCS (Sigma), 1% L-glutamine, 1% penicillin-streptomycin.
as §1, with “Biotech). The membranes were blocked overnight in 5% non-fat milk prepared in PBS-T buffer, at 4° C.” for “Biotech).”

The subject of test [3] is PPAR-γ. Briefly: Western immunoblot of PPAR-γ protein expression in myometrial and amnion cells. It is filed as cell-based, human. As for the experimental part: Western immunoblots of (A) nuclear and cytosolic protein extracts from myometrial and amnion cells with or without 15 min IL-1β stimulation, and (B) nuclear extracts of myometrial cells treated with 15d-PGJ2+/−IL-1b. Probing with antibody to PPARγ.
(§2) Protein samples (20-70 μg) were mixed with Laemmli sample buffer (1:1) containing β-mercaptoethanol (5%), and boiled for 5 min. Proteins were then separated by SDS-PAGE (12-14% gels) and transferred onto PVDF membrane (Amersham Pharmacia Biotech). The membranes were blocked overnight in 5% non-fat milk prepared in PBS-T buffer, at 4° C. The blots were incubated with the primary antibody in 1% non-fat milk in PBS-T buffer for 1 h, and washed three times (10 min each) in PBS-T with vigorous shaking. The blots were then incubated with HRP-conjugated secondary antibody (diluted 1:2000 in 1% non-fat milk in PBS-T buffer) for 1 h and washed three times (10 min each) in PBS-T. Signal detection was achieved using enhanced chemi-luminescence (ECL plus system, Amersham Pharmacia Biotech) according to manufacturer's instructions.
(§3) 30-50 μg protein extracts were subjected to SDS-PAGE and Western immuno-blotting. Secondary antibodies were IgG-HRP and ECL Plus detection kit (Amersham Pharmacia Biotech, Amersham Place, Little Chalfont, Bucks, HP7 9NA) was used for visualisation.

In test [4] the test system is IKKα or IKKβ. Put plainly: Western immunoblot of IKK protein expression in myometrial cells. The class given is cell-based, human. How it is done: Western immunoblots of cytosolic extracts from myometrial cells (A) treated with 15dPGJ2 for 2 h+/−IL1b for 15 min; probed for IKK, and (B) treated with […] 15dPGJ2, […] MG132 or vehicle for 2 h, +/−IL-1β for 15 min; probed for IκBα.
as §2, §3

The test system of test [5] is LPS-induced inflammatory responses in placental homogenates. Put plainly: Mouse model of preterm labour: placental inflammatory responses after intrauterine LPS ± 15d-PGJ2. It is filed as in vivo, mice. As for the experimental part: Concentrations of IL-1 (in placental homogenates collected from gestation day 16 mice 6 hours after intrauterine injection of 250 μg LPS+vehicle or 250 μg LPS+4 μg 15d-PGJ2. * denotes statistically significant difference (t-test (p<0.05)).
Relative concentrations of phospho-p65 in placental homogenates collected from gestation day 16 mice 6 hours after intrauterine injection of 250 μg LPS+vehicle or 250 μg LPS+4 μg 15d-PGJ2. * denotes statistically significant difference (t-test (p<0.05)).
Surgery was performed on timed pregnant MF1 mice at day 16 of gestation. After deep maternal anaesthesia was attained, a minilaparotomy was performed in the lower abdomen. The uterine horns were exposed through the incision and preterm labour was induced by the intrauterine injection of […] lipopolysaccharide (LPS, Sigma) into the gravid horn. This was immediately followed by injection of 4 μg […] (Cayman), or an equal volume of vehicle (methyl acetate), at the same site. The uterus was then returned to the abdomen and the fascia and skin were closed with continuous vicryl sutures.
Mice were sacrificed 6 hours after injection of LPS±15d-PGJ2. Placentae were washed in phosphate buffered saline (PBS), flash frozen in liquid nitrogen and stored at −80° C. until further processing. Fetuses were washed in PBS, then immediately fixed in 4% paraformaldehyde for 24 h and then stored in 70% ethanol until further processing. Placentae were homogenized for 1 minute in the presence of lysis buffer comprising 400 mM KCl, 20 mM HEPES pH7.4, 1 mM dithiothreitol, 20% glycerol and 5% (v/v) protease inhibitor cocktail.
Homogenate levels of Interleukin-1β (IL-1β) and tumour necrosis factor α (TNFα) were determined in placental lysates by ELISA (R and D systems) according to manufacturers instructions. Total protein concentrations were determined for each homogenate and IL-1β and TNFα levels were expressed as pg/mg total protein. […] Phosphorylated p65 (phospho-p65) was detected by western immunoblotting using a specific antibody (Santa Cruz) and quantified by densitometric analysis.

Where [6] appears, read: proximal placentae, gestation day 16 mice, 6 hours after intrauterine 250 μg LPS+4 μg 15d-PGJ2, p<0.05.

Consider `CCCCCC=CC=C1C(=O)C=C[C@@H]1CC=CCCCC(=O)O` [15d-PGJ2, 15-deoxy-Δ^12,14prostaglandin J2], for which the “IL-1β-induced COX-2 expression” value in test [1] and in test [2] was “inhibited” throughout. In test [3], the PPAR-γ protein expression entry is on record as “not affected”. Also, in test [4], the “IKKα or IKKβ protein expression” value is given as “had no effect”. The “TNFα levels according to drug treatment” value in test [5] (placentae, 6 hours after intrauterine LPS+15d-PGJ2 vs LPS+ vehicle) is recorded as “not significantly altered”. Moreover, the “Levels of IL-1β lower than LPS+ vehicle” value in test [5] (setting [6]) is on record as “approximately 40%”. For the same compound, the “phospho-p65 levels lower than LPS+ vehicle” value in test [5] (setting [6]) is “approximately 35%”.
